Data on two compounds can be found in patent publication US20250340593A1, “METHOD AND COMPOSITION FOR TREATING NEURODEGENERATIVE DISORDER” (priority 2022, published 2025).

The test system of data set [1] is DIV 21 primary hippocampal neurons. Put plainly: Aβ synaptic targeting in primary hippocampal neurons. Conditions: 500 nM biotinylated HMW Aβo enriched preparation aggregated 2 h with equimolar peptide; neurons treated 30 min. The format is cell-based, mouse. As for the experimental part: Primary hippocampal neuron cultures were prepared from E17-18 C57Bl/6JRj mice. Briefly, hippocampi were removed, cut into pieces in Hank's buffered salt solution (HBSS), digested in HBSS supplemented with trypsin (0.25% v/v) and rinsed in HBSS and BSA 0.2%. Next, hippocampi were triturated in Neurobasal medium without phenol red supplemented with L-glutamine (2 mM), 2% B27, 1% penicillin-streptomycin (10000 U/mL). Hippocampal neurons were then plated onto poly-L-lysine coated coverslips (0.5 mg/ml) at a low density (15×10^3 cells/cm2) for synaptic targeting experiments. Neurons were subsequently cultured for 21 DIV in supplemented Neurobasal medium at 37° C. under 5% CO2, one-half of the media being changed once a week. […]
Treated hippocampal neuron cultures were fixed with 4% paraformaldehyde in 0.1 M phosphate buffer at RT prior to immunostaining. After a blocking step in non-permeabilizing condition (PBS, 1% BSA) surface-bound biotinylated Aβ was detected with fluorescently tagged streptavidin (Alexa Fluor 647, Invitrogen) incubated for 3 h at RT. […]
Immunostainings images were obtained using a confocal Zeiss LSM 880 AiryScan microscope equipped with two diode lasers (405, 561 nm), a laser gaz argon (488 nm) and a laser gaz He/Ne ([…]), a 63x objective and an additional zoom factor (3x). […] Biotinylated Aβ clusters were quantified in each ROI in collapsed Z-stacks.

A further data set concerns the target T1, Aβ preparation (30 μM) (Homo sapiens, UniProt P05067).
T1 construct: purchased Bachem; host or cells: chemical synthesis
Briefly: Transmission electron microscopy of Aβ aggregates. Particulars: for morphology of Aβ aggregates by TEM: Aβ 30 μM with equimolar peptide, 24 h. As for the experimental part: Prior to imaging, 10 μL of an Aβ preparation (30 μM) aggregated for 24 h at 37° C. in the presence or absence of equimolar concentration of the CP or BP were deposited onto Formvar-C coated mesh nickel grids. After a 10 min incubation step at RT, grids were rinsed with sterile dH20. Samples were subsequently stained using 5% uranyl acetate for 1 minute in the dark to increase contrast and were allowed to air dry for 2 minutes. Finally, they were visualized with a JEM 1400 Transmission Electron Microscope (Jcol Tokyo, Japan), operating at 120 kV, initially imaged at low magnification (20,000X), and thereafter at 120,000X using a Gatan Orius 1000 digital micrograph software.

For data set [2], the system named is hippocampal slices from 8-month-old WT and APP/PS1 mice. Briefly: LTP field potential recordings in acute hippocampal slices. More on the design: species or system mouse. Particulars: for LTP amplitude computed as fEPSP slope 50 to 60 min after TBS / effect on LTP responses in WT slices: peptide 500 nM for 40 min before TBS. As for the experimental part:
Animals specimens Embryonic day 17-18 (E17-18) C57BI/6JRj wild-type male and female mice were used for primary hippocampal cell cultures. Electrophysiological field potential recording experiments were performed on 8-month-old wild type and transgenic heterozygous male APP/PS1-21 mice generated on a C57Bl/6 background and expressing a transgene combining human APP with the Swedish mutation (APPKM670/671NL) and mutated L166P human presenilin 1 (PS1) under the Thyl promoter (Radde et al, 2006). Wild type and APP/PSI mice were generated as described previously (Radde et al, 2006) and genotyping was carried out to reveal the presence or absence of APP and PSI transgenes. The study was conducted in accordance with the European Community Council directive 2010/63/EU on the protection of animals used for experimental and scientific purposes. Animal care and treatment procedures were realized according to the guidelines approved by the French Ethical Committee of the Lyon 1 University (DR2013-47).
Local field potential recordings (LFP) were performed on acute coronal hippocampal slices from 8-month-old wild type and transgenic heterozygous male APP/PS1-21 mice to measure baseline synaptic response and long-term potentiation (LTP) of Schaffer collaterals to CAI pyramidal cell synapses. Hippocampal slices (400 μm thick) were cut using a vibratome (Leica VT1200S) and incubated at room temperature in artificial cerebrospinal fluid (ACSF) containing (in mM): 124 NaCl, 10 glucose, 1.25 NaH2PO4, 2.5 KCl, 26 NaHCO3, 1.3 MgCl2, and 2.5 CaCl2, bubbled with 95% 02 and 5% CO2, pH 7.4) for 1 h prior to recording. Field excitatory postsynaptic potentials (fEPSPs) were recorded extracellularly in stratum radiatum of CAI region of the dorsal hippocampus in presence of gammaaminobutyric acid (GABA)-A receptor antagonist picrotoxin (100 μM). Electrical stimulation was realized with a bipolar tungsten electrode placed in CAI stratum radiatum and fEPSPs were measured using borosilicate glass microelectrodes (˜1-3 M (2) filled with ACSF. The tip of the recording electrode was located close to the slice surface. LFP were amplified and low-pass filtered at 3 kHz using a differential amplifier (X1000, WPI) and data acquisition and analyses were carried out using a National Instrument interface coupled with Elphy software (G. Sadoc, CNRS, France). LFP were sampled at 10 kHz and fEPSPs initial slope was computed to quantify synaptic responses. After baseline recordings of synaptic activity evoked at 0.2 Hz for at least 10 minutes, slices were incubated in ACSF or treated with the CP or BP at 500 nM for 40 min before inducing LTP with the theta burst stimulation (TBS). The effects of the peptides on synaptic responses were tested in a series of pilot experiments on mice of both genotypes. […] TBS consisted of 10 trains separated by 30 s, each train composed of 6 bursts at 5 Hz and each burst providing 4 pulses at 100 Hz. Before LTP induction, precautions were taken to ensure that approximately the same amplitude of fEPSPs was obtained in baseline for the different experiments to achieve the same level of cooperativity in each group. After LTP induction, fEPSPs were recorded for at least 60 min.

Residues, ends and D or L forms follow the SMILES beside them.

T1 sequence (P05067 672-713 limits assumed): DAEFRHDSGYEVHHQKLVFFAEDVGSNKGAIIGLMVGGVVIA

Turning to `CC(C)[C@H](NC(=O)[C@H](Cc1ccc(O)cc1)NC(=O)[C@@H](NC(=O)[C@H](CO)NC(=O)[C@H](Cc1c[nH]c2ccccc12)NC(=O)[C@H](CO)NC(=O)[C@H](CCCCN)NC(=O)[C@H](Cc1ccc(O)cc1)NC(=O)[C@H](CCCNC(=N)N)NC(=O)[C@H](CO)NC(=O)[C@H](CCCCN)NC(=O)[C@H](CCCCN)NC(=O)[C@H](CCCNC(=N)N)NC(=O)[C@@H](N)CCCCN)C(C)C)C(=O)NCC(=O)O` [BP, KRKKSRYKSWSVYVG] (H-KRKKSRYKSWSVYVG-OH; N-terminus and C-terminus assumed), in data set [1], the “synapses colocalized with Aβ” value is “only a small proportion”. For the same compound, on Aβ preparation (30 μM), the “morphology of Aβ aggregates by TEM” value was “mainly non-fibrillar and amorphous in shape”; the “self-assembly structures of peptide alone by TEM” value was “does not induce any 3-dimensional self-assembly structures”. In addition, the “change in baseline synaptic responses before LTP induction” value in data set [2] (500 nM, during the 40 min prior to LTP induction, mice of both genotypes) is listed as “did not induce a change”. In addition, the “LTP amplitude computed as fEPSP slope 50 to 60 min after TBS” value in data set [2] (APP/PS1 slices) was determined as 226.7±40.5%. The “effect on LTP responses in WT slices” value in data set [2] (WT slices) was “does not alter LTP responses”.

With NDYKDDDDKGAAA [CP, reference compound], in data set [1], the “synapses colocalized with Aβ” value is listed as about 40%. In the data set with Aβ preparation (30 μM), the “morphology of Aβ aggregates by TEM” value is “characteristic twisted morphology” and the “self-assembly structures of peptide alone by TEM” value is given as “does not induce any 3-dimensional self-assembly structures”. For the same compound, the “LTP amplitude computed as fEPSP slope 50 to 60 min after TBS” value in data set [2] (APP/PS1 slices) is recorded as 119.8±9.1%. For the same compound, in data set [2] (WT slices), the “LTP amplitude computed as fEPSP slope 50 to 60 min after TBS” value came to 191.4±18.3% and the “effect on LTP responses in WT slices” value is “does not alter LTP responses”.
